Structures are written as SMILES.

A word on the melting point: it is the temperature of the solid-liquid transition. As to `COc1ccc(-c2c(Cl)c(CN3C(=O)CCC3=O)nc3sc4c(c23)CC(C)(C)C(O)C4)cc1` (stereo not drawn), the melting point fell in the range of 227 to 229 °C.
Take `CC1Oc2ccc(CN3CCN(c4nc(-c5ccccc5)ns4)CC3)cc2NC1=O` (stereo not drawn): the melting point is 192 to 221 °C.
In the case of `COc1cc(OC)nc(NC(=O)NS(=O)(=O)c2ccccc2-c2ccno2)n1`, the melting point was in the range of 183 to 187 °C.
Next, `C[C@H]1C(S(=O)(=O)c2ccccc2)C=C(Sc2ccccc2)CC[C@H]1O[Si](C)(C)C` (stereo partly drawn): 114 to 116 °C.
Next, `COC(=O)c1cnc2c3cc(NC(=O)CC(C)(C)C)ccc3ncn2c1=O`: 247 to 249 °C; `CCC(C)(CC)c1ccc(NC(=O)c2c(OC)cccc2OC)nn1`: 145 to 147 °C.
The compound `COc1ccc(CNc2nc(N)n3nc(-c4ccco4)nc3n2)cc1` showed a melting point of 238 to 239 °C.
In the case of `COc1ccc(OC)c(C2(Cl)C(=O)Nc3ccc(Cl)cc32)c1` (stereo not drawn), the melting point worked out at 157 °C.
`CC(C)c1cccc(C(C)C)c1NC(=O)N(Cc1ccccc1)CC(c1ccccc1)c1ccccc1` gave a melting point of 153 to 155 °C.
Consider `COc1ccc(CC(=O)O)cc1C1CCCCC1`, for which the melting point fell in the range of 112 to 114 °C.
Regarding `COC1OCC[C@@H]1NC(=O)[C@H](CC(C)C)NC(=O)OCc1ccccc1` (stereo partly drawn), the melting point is 112 to 113 °C.
Consider `CC(=O)NC1(c2ccccc2)CCN(CCC(CN(CCc2ccccc2)CCc2ccccc2)c2ccc(Cl)c(Cl)c2)CC1` (stereo not drawn), for which the melting point lay in the range of 60 to 62 °C.
In turn, `CC(O)(C(=O)Nc1ccc(S(=O)(=O)c2ccccc2)cc1)C(F)(F)F` (stereo not drawn) displayed a melting point of 164 to 166 °C.
As for `Cn1ncnc1-c1ccc(C(=O)C(=O)N2Cc3cccn3Cc3ccccc32)c(Cl)c1`, the melting point lay within 141 to 143 °C.
Next, `NC1=C(C(=O)c2cccs2)C2=C(CCC2)S1=O` (stereo not drawn): 133 to 134 °C; `COC(=O)CCC(OC(=O)Oc1ccccc1)C(=O)c1ccc(Cl)cc1` (stereo not drawn): 97 to 98 °C; `COC(=O)c1ccc(NC(=O)NCc2cccc(OC(C)=O)c2)cc1Cl`: 113 to 114 °C.
In turn, `Cc1ccc(Nc2nnc(-c3cccc(OCc4ccccc4)c3)s2)cc1Cl` had a melting point of 211 to 212 °C.
`CO[C@H](C(=O)O)c1cccc([N+](=O)[O-])c1` displayed a melting point of 112 °C.
In the case of `CC(Cc1ccc(O)cc1)NCC(O)c1cc2ccccc2o1` (stereo not drawn) it was 135 to 138 °C.
On to `Nc1ncc(-c2ccc(F)cc2F)nc1C(=O)Nc1cccnc1`, for which the melting point is 232 to 234 °C.
For `COC(=O)C(CCSC)N(C(=O)OC(C)(C)C)C(=O)c1ccc(N)c(C)c1` (stereo not drawn), the melting point fell in the range of 163 to 165 °C.
`CCn1cc(C(=O)O)c(=O)cc1-c1c(Cl)cccc1Cl` registered a melting point of 200 to 201 °C.
Regarding `O=C(O)CS(=O)(=O)CCCCCNS(=O)(=O)c1ccc(Cl)cc1`, the melting point fell in the range of 193 to 194 °C.
Next, `Cc1cc2nc3c4cc([N+](=O)[O-])ccc4n(CCN(C)C)c3nc2cc1C`: 219 °C; `Cc1cc2c(cc1N1CC(C)C(C)C1)OC(=O)C2C` (stereo not drawn): 104 to 105 °C; `COc1ccc(CNc2nnc(NCCCO)c3ccc(Cl)cc23)cc1Cl`: 131 to 138 °C.
With `COc1nc(C)c(N2CCCn3c2nc2c(Cl)ccc(C(O)(C4CC4)C4CC4)c23)c(C)n1`, the melting point was in the range of 220 to 221 °C.
`O=C(NCCCc1ccncc1)N(CCCC12CC3CC(CC(C3)C1)C2)CC(F)(F)F` had a melting point of 88.9 to 90 °C.
`CC1CCc2nc(Cl)nc(-c3ccc(F)cc3)c2C1` (stereo not drawn) returned a melting point of 106 to 108 °C.
For the compound `CCCCNCCC(=O)Nc1ccc2c(c1)C(=O)c1cc(NC(=O)CCNCCCC)ccc1C2=O`, the melting point turned out to be 168 °C.
In turn, `CC(C)CCn1c(=O)c2c(N3CCN(C)CC3)cc(Cl)cc2n(Cc2ccccc2)c1=O` gave a melting point of 62 to 68 °C.
As to `N#Cc1nc(N)c(Cl)nc1C#N`, the melting point fell in the range of 205 to 208 °C.
Take `Cc1cn(S(C)(=O)=O)c2c1C(=O)CC(c1ccccc1F)C2` (stereo not drawn): the melting point was 130 to 134 °C.
In the case of `COC(=O)C1=C(C)NC(C)=C(C(=O)OC(C)CCl)C1c1cccc([N+](=O)[O-])c1` (stereo not drawn) it was 95 to 102 °C.
Regarding `Oc1c(C(O)(C(F)(F)F)C(F)(F)F)cc(Br)c2ccccc12`, the melting point was in the range of 112 to 115 °C.
`CCOCc1nc2c(N)nc3cc(N4CCCCC4)ccc3c2n1CCCOC(C)C` registered a melting point of 182 to 184 °C.
The compound `COC(=O)CCc1oc(-n2ccnc2)nc1-c1ccc(Cl)cc1` displayed a melting point of 95 to 96 °C.
Take `N#Cc1ccc2[nH]c(=O)c3ccccc3c(=O)c2c1`: the melting point is above 300 °C.
For the compound `N#Cc1cc2c(c(C(=O)O)c1)OC(c1ccccc1)(c1ccccc1)O2`, the melting point was 221 °C.
In the case of `CC1(O)CCC2(C)C(CCC3C2CCC2(C)C(c4cc(CO)on4)CCC32)C1` (stereo not drawn) it was 198 to 200 °C; in that of `COc1cc(COc2nn(Cc3ccc(Oc4ccccc4)cc3)cc2C(=O)O)ccc1OCc1nc(-c2ccco2)oc1C`, 153 to 154 °C; in that of `COc1ccc(SC2CC(=O)N2CC(=O)NCCCCCCc2ccc(Cl)cc2)cc1` (stereo not drawn), 84 to 86 °C.
`NC(=O)c1nc(-c2cccc(O)c2)nc2c1[nH]c(=O)n2-c1ccc(Cl)cc1Cl` showed a melting point of 375 to 377 °C.
Compound `O=C(Nc1ccc(OC(F)(F)F)cc1)c1ccccc1NCc1ccc(=O)[nH]c1` showed a melting point of 189 °C.
In the case of `C[C@@H](CSC(F)(F)C(F)F)[C@](O)(Cn1cncn1)c1ccc(Cl)cc1Cl` it was 61 to 63 °C; in that of `CCn1cc(C(=O)O)c(=O)c2cc(F)c(N3CCNCC3)c(OC)c21`, 169 °C; in that of `CC(NC(=O)c1c(Cl)ccnc1Cl)c1ncc(C(F)(F)F)cc1Cl` (single isomer, unassigned; (+)), 110 to 111 °C.
In turn, `Cc1sc(-c2ccccc2)nc1COc1ccc(COc2ncccc2C#N)cc1` registered a melting point of 120 to 121 °C.
As to `O=S(=O)(c1ccc(F)c(C(F)(F)F)c1)N1CCC(Nc2nc(Nc3cccc(C(F)(F)F)c3)nc(OCC(F)(F)F)n2)CC1`, the melting point lay within 250 to 252 °C.
In turn, `Cc1c(OCC(F)(F)F)ccnc1CSc1nc2ccccc2n1N` showed a melting point of 134 to 135 °C.
Compound `C(=C\c1nc(COc2ccc(CCCCn3ccnc3-c3ccccc3)cc2)co1)/c1ccccc1` yielded a melting point of 85 to 86 °C.
As for `C=CCOC(=O)c1c(C)nc2c(cnn2CCOCC)c1N`, the melting point was in the range of 38 to 40 °C.
For `CC(C)(CCl)C(=O)N(O)Cc1ccccc1F`, the melting point lay in the range of 110 to 112 °C.
Next, `CCOC(=O)c1nc2ccc([N+](=O)[O-])cc2c(O)c1C(=O)OCC`: 264 °C.
In turn, `CN1c2ccc(-c3cccc4ccccc34)cc2S(=O)(=O)c2cc(-c3cccc4ccccc34)ccc21` gave a melting point of 221 to 225 °C.
As to `O=C(O)CCCNc1ccnn1-c1c(Cl)cc(C(F)(F)F)cc1Cl`, the melting point lay within 160 to 162 °C.
Next, `COc1ccc2c(c1)OCC(c1ccc(C(F)(F)F)cc1)C2c1ccc(OCCN2CCCC2)cc1` (stereo not drawn): 119 to 120 °C; `CCNC(=O)C=Cc1ccc(C(=C(CC)c2ccccc2)c2ccccc2)cc1`: 192 to 193 °C.
In turn, `CCOC(=O)C1CCCN(C(=O)CCn2cnc3c(=O)[nH]cnc32)C1` (stereo not drawn) gave a melting point of 171 to 175 °C.
With `CC(=O)Oc1c(C)ccc2ccccc12`, the melting point is 81 to 83 °C.
As for `Cc1c(I)sc(I)c1Br`, the melting point was 81 to 82 °C.
`CC(=O)COc1ccc(Cl)cc1C(=O)O` returned a melting point of 90 to 91 °C.
For `COCc1nn(-c2cccc(NC(C)=O)c2)c(=O)n(Cc2ccc(Cl)cc2)c1=O`, the melting point is 97 °C.
Next, `Fc1nccn1C(c1ccccc1)(c1ccccc1)c1ccccc1`: 182 to 185 °C.
With `COC(=O)c1ccc(O)c(I)c1`, the melting point fell in the range of 145 to 146 °C.
Take `CCON=CNC(=O)c1ccc(C2=NOC(c3cc(Cl)cc(Cl)c3)(C(F)(F)F)C2)cc1C` (stereo not drawn): the melting point fell in the range of 143 to 146 °C.
Next, `COC(=O)C1CC(=O)N(c2cc(C(F)(F)F)cc(C(F)(F)F)c2)C1` (stereo not drawn): 68 to 70 °C; `CN(C)C(=O)CC(C)(C)C(=O)O`: 119 to 121 °C; `CCC(Nc1ccc(OC)nc1)n1nnc2ccccc21` (stereo not drawn): 109 to 110 °C.
`COc1ccc2c(c1)sc1nc(C=O)cn12` yielded a melting point of 214 to 215 °C.
Next, `O=C(NCCCCN1CCN(C(c2ccccc2)c2ccccc2)CC1)c1cnc2cccc(O)c2c1O`: 215 to 218 °C; `CCc1cccc2c3c([nH]c12)C(CC)(CCF)OCC3` (stereo not drawn): 118 to 119 °C; `NC(=O)Cc1ccc(CCCOCCCCCCNCC(O)c2cc(Cl)c(N)c(Cl)c2)cc1` (stereo not drawn): 104 to 106 °C.
`CC(C)CNCC(=O)Nc1ccc2c(c1)C(=O)c1cc(NC(=O)CNCC(C)C)ccc1C2=O` gave a melting point of 146 °C.
For the compound `Oc1ccccc1Nc1nccc(-c2cccnc2)n1`, the melting point fell in the range of 166 to 169 °C.
`O=c1cnc(-c2cc(Br)cc(-c3ccsc3)c2)nn1CC(F)(F)F` came in with a melting point of 180 to 182 °C.
On to `O=C1Nc2ccc(Cl)cc2C1CC1CCCCC1` (stereo not drawn), for which the melting point lay in the range of 152 to 153 °C.
Next, `COc1cc(NC(=S)NCCN)cc(OC)c1`: 125 to 126 °C.
As for `COC(=O)c1cc(N)c(N2CCCCC2)c(S(C)(=O)=O)c1`, the melting point was in the range of 178 to 179 °C.
Compound `COc1cc(Nc2nc3cccc(-c4cccc(CNC(C)=O)c4)c3o2)cc(OC)c1OC` displayed a melting point of 203 to 204 °C.
`CC(=O)c1ccc2sc3ccc(C(C)=O)cc3c2c1` had a melting point of 207 to 210 °C.
`CN(CCCN)CC(O)C(O)C(O)C(O)CO` (stereo not drawn): the melting point amounted to 106 °C.
Next, `CC(C)(C)OC(=O)N1CCN(C(=O)c2cc3ccccc3[nH]2)CC1`: 213 to 214 °C.
On to `c1ccc2nc(COc3cccc4[nH]ccc34)ccc2c1`, for which the melting point lay in the range of 143 to 144 °C.
On to `CC(C#N)c1ccc(C(=O)c2ccc(Cl)cc2)n1C` (stereo not drawn), for which the melting point is 145 to 148 °C.
In turn, `COc1ccc(COc2cccc(C(=O)Nc3ccc(S(C)(=O)=O)cc3)c2)cc1` displayed a melting point of 173 to 174 °C.
As for `COCC(=S)Nc1c(Cl)c(C)cc2nc(OC)c(OC)nc12`, the melting point was in the range of 174 to 176 °C.

Source of the values: a melting point compilation (Tetko et al.; mined from patent text by program, amines drawn as free bases though some values may be those of a salt).
